# In patent US20220274987A1, “PYRAZINO [1,2-B]QUINAZOLINE-3,6-DIONES DERIVATIVES, THEIR PRODUCTION AND USES THEREOF” (CIIMAR -CENTRO INTERDISCIPLINAR DE INVESTIGAÇÃO MARINHA E …, priority 2019, published 2022):
# Read-outs that look alike come from different tables or passages of the source.
# Tests used:
# [1] = tested on: Staphylococcus aureus ATCC 29213; test: MIC/MBC broth dilution (CLSI), S. aureus reference strain; type: cell-based; conditions: for MBC / MIC: Staphylococcus aureus, ATCC29213
# Description: (§1) In the present disclosure, two Gram-positive—Staphylococcus aureus ATCC 29213 and Enterococcus faecalis ATCC […] and two Gram-negative—Escherichia coli ATCC 25922 and Pseudomonas aeruginosa ATCC 27853—reference bacterial strains were used. When it was possible to determine a minimal inhibitory concentration (MIC) value for these strains, clinically relevant strains were also used. These included methicillin-resistant S. uareus (MRSA) 66/1, isolated from public buses, as well as a isolate sensitive to the most commonly used antibiotic families (S. aureus 40/61/24) and two vancomycin-resistant Enterococcus (VRE) strains isolated from river water, E. faecalis B3/101 and E. faecalis A5/102, which is sensitive to ampicillin. Frozen stocks of all strains were grown on Mueller-Hinton agar (MH-BioKar Diagnostics, Allone, France) at 37° C. for 24 h. All bacterial strains were sub-cultured on MH agar and incubated overnight at 37° C. before each assay, in order to obtain fresh cultures.
# (§2) An initial screening of the antibacterial activity of the compounds was performed by the Kirby-Bauer disk diffusion method, as recommended by the Clinical and Laboratory Standards institute (CLSI). Briefly, sterile 6 mm blank paper disks (Oxoid, Basingstoke, England) impregnated with 15 μg of each compound were placed on inoculated MH agar plates. A blank disk with DMSO was used as a negative control. MH inoculated plates were incubated for 18-20 hours at 37° C. At the end of the incubation, the inhibition halos where measured. The minimal inhibitory concentration (MIC) was used to determine the antibacterial activity of each compound, in accordance with the recommendations of the CLSI. Two-fold serial dilutions of the compounds were prepared in Mueller-Hinton Broth 2 (MHB2-Sigma-Aldrich, St. Louis, Mo., USA) within the concentration range of 0.062-64 μg/mL. Cefotaxime (CTX) ranging between 0.031-16 μg/mL was used as a control. Sterility and growth controls were included in each assay. Purity check and colony counts of the inoculum suspensions were also performed in order to ensure that the final inoculum density closely approximates the intended number ([…]). The MIC was determined as the lowest concentration at which no visible growth was observed. The minimal bactericidal concentration (MBC) was assessed by spreading 10 μL of culture collected from wells showing no visible growth on MH agar plates. The MBC was determined as the lowest concentration at which no colonies grew after 16-18 hours incubation at 37° C. These assays were performed in duplicate.
# [2] = tested on: S. aureus 66/1 (MRSA); test: MIC/MBC broth dilution (CLSI), MRSA; type: cell-based; conditions: Staphylococcus aureus
# Description: as §1, §2
# [3] = tested on: E. faecalis ATCC 29212; test: MIC/MBC broth dilution (CLSI), E. faecalis reference strain; type: cell-based, Enterococcus faecalis
# Description: as §1, §2
# [4] = tested on: S. aureus 40/61/24; test: MIC/MBC broth dilution (CLSI), sensitive clinical isolate; type: cell-based; conditions: Staphylococcus aureus
# Description: as §1, §2
# [5] = tested on: Plasmodium falciparum 3D7 strain; test: In vitro susceptibility assay of P. falciparum, SYBR Green I; type: cell-based; conditions: for IC50: Plasmodium falciparum, P. falciparum (3D7), 48 h, read-out: IC50; for antimalarial activity (in words): P. falciparum 3D7
# Method: The principle of the in vitro susceptibility test to malaria is to assess the degree of development of parasites P. falciparum in the presence of different concentrations of the compounds.
# In the present disclosure, the antimalarial activity was also evaluated. Each compound was lyophilized and solubilized in DMSO (Sigma-Aldrich) to obtain a final concentration of 5 mM. Some intermediate dilutions were made to achieve the final concentration of 10 μM in the first well of the plate.
# In an embodiment, the culture of P. falciparum was carried out as follows. […] Parasites were cultivated at 5% hematocrit, 37° C. and atmosphere with 5% of CO2, human serum was replaced with 0.5% AlbuMAXII (Invitrogen™) in the culture medium. Synchronized cultures were obtained by treatments with a 5% (m/v) solution of D-sorbitol (Sigma-Aldrich).
# In the present disclosure, the in vitro susceptibility assay of P. falciparum using SYBR Green I was carried out as follows. […] Briefly, early ring stage parasites (>80% of rings, 3% haematocrit and 1% parasitaemia) were tested in duplicate in a 96-well plate and incubated with the compounds for 48 h (37° C., 5% CO2), parasite growth was assessed with SYBR Green I (Thermo Fisher Scientific). Each compound was tested in concentrations ranging from 10 to 0.001 μM. Fluorescence intensity was measured with a microplate reader with excitation and emission wavelengths of 485 and 535 nm, respectively, and analysed by nonlinear regression using GraphPad Prism 5 demo version to determine
# [6] = tested on: E. faecalis B3/101 (VRE); test: MIC/MBC broth dilution (CLSI), VRE; type: cell-based; conditions: Enterococcus faecalis
# Description: as §1, §2
# [7] = tested on: E. faecalis A5/102 (VRE); test: MIC/MBC broth dilution (CLSI), VRE sensitive to ampicillin; type: cell-based; conditions: Enterococcus faecalis
# Description: as §1, §2
# [8] = S. aureus ATCC 29213, read-out: MIC
# [9] = Enterococcus faecalis, ATCC29212
Structure (SMILES),IC50 [5] [nM],antibacterial (inhibitory) effect (in words) ([1]; S. aureus ATCC 29213),MBC ([1]; S. aureus ATCC 29213) [µg/mL],MBC [2] [µg/mL],MIC [2] [µg/mL],"MBC [3, 9] [µg/mL]",MBC ([4]; S. aureus 40/61/24) [µg/mL],antimalarial activity (in words) [5],also measured
"CC(C)C[C@@H]1NC(=O)[C@@H](Cc2c[nH]c3ccccc23)n2c1nc1ccc(Br)cc1c2=O [Compound 36, (1s,4R)-4-((1H-indol-3-yl)methyl)-8-bromo-1-isobutyl-1,2-dihydro-6H-pyrazino[2,1-b]quinazoline-3,6(4H)-dione]",,inhibitory effect,> 64,> 64,> 64,> 64,> 64,,"MIC [1, 8]: 16 µg/mL; MIC ([3]; Enterococcus faecalis, ATCC29212, read-out: MIC): > 64 µg/mL; MIC ([4]; S. aureus 40/61/24, read-out: MIC): > 64 µg/mL"
O=C1N[C@H](Cc2ccc(O)cc2)c2nc3ccccc3c(=O)n2[C@H]1Cc1c[nH]c2ccccc12 [Compound 25],4180 ± 30,,,,,,,,
CC(C)[C@H]1NC(=O)[C@@H](Cc2c[nH]c3ccccc23)n2c1nc1ccccc1c2=O [Compound 13],150 ± 50,,,,,,,decreased activity,
"CC(C)[C@@H]1NC(=O)[C@@H](Cc2c[nH]c3ccccc23)n2c1nc1ccc(Cl)cc1c2=O [Compound 27, (1S, 4R)-4-((1H-indol-3-yl)methyl)-8-chloro-1-isopropyl-1,2-dihydro-6H-pyrazino[2,1-b]quinazoline-3,6(4H)-dione]",,inhibitory effect,> 64,> 64,> 64,> 64,> 64,,"MIC [1, 8]: 32 µg/mL; MBC [6]: > 64 µg/mL; MIC [6]: > 64 µg/mL; MIC [3]: 64 µg/mL; antibacterial (inhibitory) effect (in words) [3]: inhibitory effect; MIC [3, 9]: 32 µg/mL; MBC [7]: > 64 µg/mL; MIC [7]: 64 µg/mL; MIC ([4]; 40/61/24): 64 µg/mL"
CC(C)C[C@@H]1NC(=O)[C@@H](Cc2c[nH]c3ccccc23)n2c1nc1ccc(O)cc1c2=O [Compound 39],730 ± 70,,,,,,,,
"CC[C@H](C)[C@@H]1NC(=O)[C@@H](Cc2c[nH]c3ccccc23)n2c1nc1ccc(Cl)cc1c2=O [Compound 29, (1S,4R)-4-((1H-indol-3-yl)methyl)-1-((S)-sec-butyl)-8-chloro-1,2-dihydro-6H-pyrazino[2,1-b]quinazoline-3,6(4H)-dione]",,inhibitory effect,> 64,> 64,> 64,> 64,> 64,,"MIC [1]: 16 µg/mL; MBC [6]: > 64 µg/mL; MIC [6]: > 64 µg/mL; antibacterial (inhibitory) effect (in words) [3]: inhibitory effect; MIC [3, 9]: 32 µg/mL; MBC [7]: > 64 µg/mL; MIC [7]: 64 µg/mL; MIC ([4]; 40/61/24): 64 µg/mL"
CC(C)C[C@@H]1NC(=O)[C@H](Cc2c[nH]c3ccccc23)n2c1nc1ccccc1c2=O [Compound 14],,,,,,,,inactive,

# Now from value to molecule, other results behind:
IC50 [5] [nM],Structure (SMILES),antibacterial (inhibitory) effect (in words) ([1]; S. aureus ATCC 29213),MBC ([1]; S. aureus ATCC 29213) [µg/mL],MBC [2] [µg/mL],MIC [2] [µg/mL],"MBC [3, 9] [µg/mL]",MBC ([4]; S. aureus 40/61/24) [µg/mL],antimalarial activity (in words) [5],also measured
3760,CC(C)C[C@@H]1NC(=O)[C@@H](Cc2c[nH]c3ccccc23)n2c1nc1ncccc1c2=O [Compound 43],,,,,,,,
1020 ± 270,"CC(C)C[C@@H]1NC(=O)[C@@H](Cc2cc3ccccc3[nH]2)n2c1nc1cc(-c3nnnn3C)ccc1c2=O [Compound 44, (1S,4R)-4-((1H-indol-2-yl)methyl)-1-isobutyl-9-(1-methyl-1H-tetrazol-5-yl)-1,2-dihydro-6H-pyrazino [2,1-b]quinazoline-3,6(4H)-dione]",,,,,,,weak activity,
4000 ± 20,"CC(C)C[C@@H]1NC(=O)[C@@H](Cc2c[nH]c3ccccc23)n2c1nc1cnccc1c2=O [Compound 42, (1S,4R)-4-((1H-indol-3-yl)methyl)-1-isobutyl-1,2-dihydro-6H-pyrazino[1,2-α]pyrido[3,4-d]pyrimidine-3,6(4H)-dione]",,,,,,,,
